This is an account of results in patent US11458079B2, “Sunscreen cosmetic” (JO COSMETICS CO., LTD., priority 2019, dated 2022).

“Also recorded” adds a separate entry of the source.

The data set is described as follows: Dissolution in the aqueous phase (C phase) of the O/W cosmetic composition. The format is physicochemical. The note with it: 5.00 mass % in C phase (aqueous phase) of O/W formulation of Comparative Example 4. The text has this: (4) The gel emulsion was mixed with the components of C phase (aqueous phase), thereby preparing an O/W cosmetic composition. […] Hydrophobized fine particle titanium oxide” alone, the sunscreen cosmetic of Comparative Example 3 simultaneously containing “9. Trans-resveratrol aglycone,” which was not a polysaccharide, and “7. […] Since it is generally difficult to apply the formulation that could not be produced in such a small lot experiment to mass production, the production of emulsified cosmetic compositions for use in sunscreen containing trans-resveratrol monosaccharide glycoside turned out to be impractical.

As to `OC[C@H]1O[C@@H](Oc2cc(O)cc(/C=C/c3ccc(O)cc3)c2)[C@H](O)[C@@H](O)[C@@H]1O` [piceid, Piceid], the “Solubility in the aqueous phase / water solubility” value is listed as “could not be dissolved; also recorded: insufficient”. Moreover, where the note is “listed as resveratrol monosaccharide glycoside”, the “Solubility in the aqueous phase / water solubility” value was “could not be dissolved uniformly”.
